Assay results reported in patent publication US20230301973A1, “TREATMENT OF DIFFUSE INTRINSIC PONTINE GLIOMA” (priority 2016, published 2023).
Like-named read-outs stand apart in the source and are kept apart here.

How the values were obtained:
[1] = cited from earlier work; for MTD: clinical
primary DIPG cell lines = test: Effect on primary DIPG cell lines / primary tumor astrocytes; format: cell-based
Excerpt: Maternal embryonic leucine zipper kinase (MELK) is a serine/threonine kinase implicated in many cellular processes involved in embryogenesis and oncogenesis. Overexpression of MELK is a common feature of diffuse intrinsic pontine glioma (DIPG) and related to tumor grade.

normal astrocytes = test: Effect on normal astrocytes; format: cell-based; conditions: 10 nanomolar
[2] = Transport over the blood-brain barrier, brain-to-plasma ratio; format: in vivo, mouse

Q: With C[C@@H](Oc1cc(-c2cnn(C3CCNCC3)c2)cnc1N)c1c(Cl)ccc(F)c1Cl [Crizotinib] as the compound, how does the MTD [1] read?
A: 250 mg twice a day

Q: For Cc1cccc(-c2nn3c(c2-c2ccnc4ccc(C(N)=O)cc24)CCC3)n1 [Galunisertib], which MTD ([1]; result in words) is on record?
A: Not able to determine MTD due to potential cardiovascular DLT

Q: For CS(=O)(=O)c1ccc(C(=O)Nc2ccc(Cl)c(-c3ccccn3)c2)c(Cl)c1 [Vismodegib], which MTD [1] is on record?
A: Not reached up to 540 mg/d

Q: For Pembrolizumab, which MTD [1] is on record?
A: Not reached up to 10 mg/kg q2w

Q: With CCN(CCCOc1ccc2c(Nc3cc(CC(=O)Nc4cccc(F)c4)n[nH]3)ncnc2c1)CCOP(=O)(O)O [AZD1152] as the compound, how does the MTB ([1]; clinical evaluation, dependent on the dosing schedule) read?
A: 200 to 450 mg

Q: For CC[C@H](Nc1ncnc2[nH]cnc12)c1nc2cccc(F)c2c(=O)n1-c1ccccc1 [Idelalisib], which MTD [1] is on record?
A: Not reached up to 350 mg twice a day

Q: Which MTD ([1]; over 1-3 days) does the source give for Nc1ncn([C@H]2C[C@H](O)[C@@H](CO)O2)c(=O)n1 [Decitabine] here?
A: 1,500-2,000/mg/m^2 over 1-3 days

Q: With CC(=O)c1cnc2ccc(-c3cc(Cl)c(O)c(Cl)c3)nc2c1NC1CCC(CN(C)C)CC1 (stereo not shown) [OTS167, 1-[6-(3,5-Dichloro-4-hydroxyphenyl)-4-({4-[(dimethylamino)methyl]cyclohexyl}amino)-1,5-naphthyridin-3-yl]ethanone] as the compound, how does the “Toxicity / apoptosis on primary tumor astrocytes” value (primary DIPG cell lines; 10 nM, most DIPG tumor cell lines) read?
A: toxic and induces apoptosis

Q: What about the “Cell death in primary DIPG cell lines” value (primary DIPG cell lines; low nanomolar concentrations) of the same compound?
A: induces cell death

Q: And the “Migration of primary DIPG cell lines” value (primary DIPG cell lines; low nanomolar concentrations)?
A: effectively inhibits migration

Q: What about the “Proliferation of primary DIPG cell lines” value (primary DIPG cell lines; low nanomolar concentrations) of the same compound?
A: reduces proliferation

Q: What about the “Apoptosis in non-somatic (normal) cells” value (normal astrocytes) of the same compound?
A: no apoptosis occurs

Q: And the “Growth of normal astrocytes” value (normal astrocytes)?
A: only slightly slows down the growth

Q: What about the “Factor of increase of concentration in brain tissue” value ([2]; co-administering a P-glycoprotein1 / Abcb1a inhibitor) of the same compound?
A: ≥ 4

Q: What about the Kp ([2]; mouse, brain and plasma, mouse models (wild type), passive transport, read-out: Brain-to-plasma (B/P) ratio) of the same compound?
A: 0.02

Q: And the “Absolute concentration reached in the brain” value ([2]; with pharmaceutically acceptable toxic adverse effects)?
A: about 10 nanomolar
